Like-named read-outs stand apart in the source and are kept apart here.
Assays:
Type in all cases: in vivo
[1] = test system: Avena fatua (AVEFA); assay: greenhouse pre-emergence herbicidal activity; conditions: 125 g ai/ha, read-out: observed % activity
From the text: (§1) For the pre-emergence treatment, directly after sowing the active compounds, which had been suspended or emulsified in water, were applied by means of finely distributed nozzles. The containers were irrigated gently to promote germination and growth and subsequently covered with transparent plastic hoods until plant had rooted. This cover caused uniform germination of the tests plants, unless this was adversely affected by active compounds.
(§2) The respective herbicides A and/or safener were formulated as 10% by weight strength suspension concentrate and introduced to the spray liquor with the amount of solvent system used for applying the active compound. Herbicide B and/or safener were used as commercially available formulations and introduced to the spray liquor with the amount of solvent system used for applying the active compound. In the examples, the solvent used was water.
(§3) Pendimethalin was used as a commercial aqueous suspension concentrate having an active ingredient concentration of 400 g/l.
(§4) The test period extended over 21 days. During this time, the plants were tended, and their response to the treatments with active compound was evaluated.
(§5) The evaluation for the damage caused by the chemical compositions was carried out using a scale from 0 to 100%, compared to the untreated control plants. Here, 0 means no damage and 100 means complete destruction of the plants.
(§6) The value E, which is to be expected if the activity of the individual compounds is just additive, was calculated using the method of S. R. Colby (1967) “Calculating synergistic and antagonistic responses of herbicide combinations”, Weeds 15, p. 22 ff.
(§7) where • X=effect in percent using herbicide A at an application rate a; • Y=effect in percent using herbicide B at an application rate b; • E=expected effect (in %) of A+B at application rates a+b.
(§8) If the value observed in this manner is higher than the value E calculated according to Colby, a synergistic effect is present.

[2] = test system: Bromus inermis (BROIN); assay: greenhouse pre-emergence herbicidal activity; conditions: read-out: observed % activity; for inhibition at 125 g/ha: 125 g ai/ha; for inhibition at 250 g/ha: 250 g ai/ha
From the text: as §1, §2, §3, §4, §5, §6, §7, §8

[3] = test system: Capsella bursa-pastoris (CAPBP); assay: greenhouse pre-emergence herbicidal activity; conditions: 500 g ai/ha, read-out: observed % activity
From the text: as §1, §2, §3, §4, §5, §6, §7, §8

[4] = test system: Galium aparine (GALAP); assay: greenhouse pre-emergence herbicidal activity; conditions: read-out: observed % activity; for inhibition at 125 g/ha: 125 g ai/ha; for inhibition at 250 g/ha: 250 g ai/ha
From the text: as §1, §2, §3, §4, §5, §6, §7, §8

[5] = test system: Phalaris canariensis (PHACA); assay: greenhouse pre-emergence herbicidal activity; conditions: read-out: observed % activity; for inhibition at 125 g/ha: 125 g ai/ha; for inhibition at 250 g/ha: 250 g ai/ha
From the text: as §1, §2, §3, §4, §5, §6, §7, §8

[6] = test system: Thlaspi arvense (THLAR); assay: greenhouse pre-emergence herbicidal activity; conditions: 125 g ai/ha, read-out: observed % activity
From the text: as §1, §2, §3, §4, §5, §6, §7, §8

[7] = test system: Veronica persica (VERPE); assay: greenhouse pre-emergence herbicidal activity; conditions: read-out: observed % activity; for inhibition at 250 g/ha: 250 g ai/ha; for inhibition at 500 g/ha: 500 g ai/ha; for inhibition at 1000 g/ha: 1000 g ai/ha
From the text: as §1, §2, §3, §4, §5, §6, §7, §8

[8] = test system: Alopecurus myosuroides (ALOMY); assay: greenhouse post-emergence herbicidal activity; conditions: 250 g ai/ha; for inhibition at 250 g/ha: Alopecurus myosuroides, read-out: observed % activity
From the text: (§9) For the post-emergence treatment, the test plants were first grown to a height of 3 to 20 cm, depending on the plant habit, and only then treated. Here, the herbicidal compositions were suspended or emulsified in water as distribution medium and sprayed using finely distributing nozzles.
as §2, §3, §4, §5, §6, §7, §8

[9] = test system: Amaranthus retroflexus (AMARE); assay: greenhouse post-emergence herbicidal activity; conditions: 500 g ai/ha, 20 DAT
From the text: as §9, §2, §3, §4, §5, §6, §7, §8

[10] = test system: Apera spica-venti (APESV); assay: greenhouse post-emergence herbicidal activity; conditions: 500 g ai/ha, 20 DAT
From the text: as §9, §2, §3, §4, §5, §6, §7, §8

[11] = test system: Capsella bursa-pastoris (CAPBP); assay: greenhouse post-emergence herbicidal activity; conditions: 1000 g ai/ha, 20 DAT
From the text: as §9, §2, §3, §4, §5, §6, §7, §8

[12] = test system: Lamium purpureum (LAMPU); assay: greenhouse post-emergence herbicidal activity; conditions: 500 g ai/ha, 20 DAT
From the text: as §9, §2, §3, §4, §5, §6, §7, §8

[13] = test system: Matricaria inermis (MATIN); assay: greenhouse post-emergence herbicidal activity; conditions: 250 g ai/ha, read-out: observed % activity
From the text: as §9, §2, §3, §4, §5, §6, §7, §8

[14] = test system: Stellaria media (STEME); assay: greenhouse post-emergence herbicidal activity; conditions: 20 DAT
From the text: as §9, §2, §3, §4, §5, §6, §7, §8

[15] = test system: Thlaspi arvense (THLAR); assay: greenhouse post-emergence herbicidal activity; conditions: for inhibition at 250 g/ha: Thlaspi arvense, read-out: observed % activity
From the text: as §9, §2, §3, §4, §5, §6, §7, §8

[16] = test system: Viola arvensis (VIOAR); assay: greenhouse post-emergence herbicidal activity; conditions: 500 g ai/ha, 20 DAT
From the text: as §9, §2, §3, §4, §5, §6, §7, §8

Work on `CCC(CC)Nc1c([N+](=O)[O-])cc(C)c(C)c1[N+](=O)[O-]` [pendimethalin] yielded an inhibition at 125 g/ha ([1]; 192 h, 8 DAT) of 0%, an inhibition at 125 g/ha ([1]; 480 h, 20 DAT) of 0% and an inhibition at 125 g/ha ([2]; 192 h, 8 DAT) of 20%. The inhibition at 250 g/ha ([2]; 192 h, 8 DAT) was 20%, the inhibition at 125 g/ha ([2]; 480 h, 20 DAT) was 0% and the inhibition at 250 g/ha ([2]; 480 h, 20 DAT) was 0%. It also gave an inhibition at 500 g/ha ([3]; 192 h, 8 DAT) of 50%, an inhibition at 500 g/ha ([3]; 480 h, 20 DAT) of 85% and an inhibition at 125 g/ha ([4]; 192 h, 8 DAT) of 0%. For the same compound, the inhibition at 250 g/ha ([4]; 192 h, 8 DAT) was 0%, the inhibition at 125 g/ha ([4]; 480 h, 20 DAT) was 0% and the inhibition at 250 g/ha ([4]; 480 h, 20 DAT) was 0%. The inhibition at 125 g/ha ([5]; 192 h, 8 DAT) was 0%, the inhibition at 250 g/ha ([5]; 192 h, 8 DAT) was 30% and the inhibition at 125 g/ha ([5]; 480 h, 20 DAT) was 0%. For the same compound, the inhibition at 250 g/ha ([5]; 480 h, 20 DAT) was 0%, the inhibition at 125 g/ha ([6]; 192 h, 8 DAT) was 0% and the inhibition at 125 g/ha ([6]; 480 h, 20 DAT) was 20%. For the same compound, the inhibition at 250 g/ha ([7]; 192 h, 8 DAT) was 65%, the inhibition at 500 g/ha ([7]; 192 h, 8 DAT) was 65% and the inhibition at 1000 g/ha ([7]; 192 h, 8 DAT) was 70%. For the same compound, the inhibition at 250 g/ha ([7]; 480 h, 20 DAT) was 85%, the inhibition at 500 g/ha ([7]; 480 h, 20 DAT) was 85% and the inhibition at 1000 g/ha ([7]; 480 h, 20 DAT) was 90%. The “observed activity in % destruction 20 days after treatment” value ([8]; 20 DAT) was 45%, the inhibition at 250 g/ha ([8]; 168 h, 7 DAT) was 35% and the inhibition at 250 g/ha ([8]; 480 h, 20 DAT) was 45%. For the same compound, the “observed activity in % destruction 20 days after treatment” value [9] was 80%, the “observed activity in % destruction 20 days after treatment” value [10] was 10% and the “observed activity in % destruction 20 days after treatment” value [11] was 95%. For the same compound, the “observed activity in % destruction 20 days after treatment” value [12] was 90%, the inhibition at 250 g/ha ([13]; 168 h, 7 DAT) was 0% and the inhibition at 250 g/ha ([13]; 480 h, 20 DAT) was 0%. For the same compound, the “observed activity in % destruction 20 days after treatment” value ([14]; 250 g ai/ha) was 85%, the “observed activity in % destruction 20 days after treatment” value ([14]; 1000 g ai/ha) was 90% and the “observed activity in % destruction 20 days after treatment” value ([15]; 250 g ai/ha, 20 DAT) was 80%. The “observed activity in % destruction 20 days after treatment” value ([15]; 1000 g ai/ha, 20 DAT) was 90%, the inhibition at 250 g/ha ([15]; 168 h, 250 g ai/ha, 7 DAT) was 55% and the inhibition at 250 g/ha ([15]; 480 h, 250 g ai/ha, 20 DAT) was 80%. For the same compound, the “observed activity in % destruction 20 days after treatment” value [16] was 85%.

From patent publication US20110009265A1, “Herbicidal Compositions Comprising Pyroxasulfone” (BASF SE, priority 2008, published 2011)
